Here are results for eleven compounds from PubChem BioAssay (NCI).

Assay in all cases: growth of human tumour cells (NCI), 48 h
Test [1] concerns 786-0 renal.
In test [2] the test system is ACHN renal.
The subject of test [3] is IGROV1 ovarian.
Test [4] deals with M14 melanoma.
The test system of test [5] is MOLT-4 leukemia.
Test [6] deals with NCI/ADR-RES ovarian.
For test [7], the system named is RPMI-8226 leukemia.
Test [8] relates to SK-MEL-2 melanoma.
Test [9] deals with SN12C renal.
In test [10] the test system is T-47D breast.

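Briefly, cells in 96-well plates were exposed to five compound concentrations for 48 h, and endpoints were estimated by linear interpolation. GI50 marks 50% less growth. Definition used: TGI = concentration required for complete inhibition of growth.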 A value given as a limit tells only on which side of the number the result lay.

In the case of `NC(=O)Nc1ccc2ncnc(Nc3ccc(Cl)cc3)c2c1`, the GI50 was 19.3 µM in [1]; 1.49 µM in [2]; 9.06 µM in [3]; 24.4 µM in [4]; 21.4 µM in test [5]; 18.3 µM in test [6]. Also, the GI50 was 24.3 µM in test [7], 18.5 µM in test [8], 11.4 µM in test [9] and 10.2 µM in [10]. The TGI is 91.7 µM in test [1]; 45.3 µM in test [2]; 34.3 µM in test [3]; 68.6 µM in [4]; 84.7 µM in test [5]; more than 81.5 µM in test [6]. The TGI was more than 88.8 µM in test [7], 46.7 µM in test [8], more than 70.7 µM in test [9] and more than 85.1 µM in [10].

For `Cc1cc(N(CCCNc2ccnc3cc(Cl)ccc23)Cc2cccs2)nc(Cl)n1`, the GI50 in test [1] is 5.48 µM; in test [2], 5.12 µM; in [3], 2.9 µM; in [4], 1.81 µM; in [5] it was 2.72 µM; in test [6], 2.64 µM. The GI50 in [7] is 1.43 µM; in test [8], 12.3 µM; in test [9], 5.91 µM; in test [10], 1.99 µM. The TGI in test [1] came to 20.6 µM; in test [2], 19.7 µM; in test [3], 18.9 µM; in test [4] it was 4.54 µM; in test [5], 22.9 µM; in test [6], 28.5 µM. Moreover, the TGI in [7] amounted to 9.71 µM; in test [8] it was 29.6 µM; in [9], 23.9 µM; in test [10], 20.6 µM.

Turning to `Cc1cc(-c2ccccc2)c(C)n1Cc1ccc(Cl)cc1`, the GI50 in test [1] was 5.35 µM; in [2] it was 4.99 µM; in test [3], 5.21 µM; in test [4], 3.21 µM; in [5], 4.84 µM; in test [6] it was 3.64 µM. For the same compound, the GI50 was 3.83 µM in test [7], 4.24 µM in test [8], 5.78 µM in [9] and 5.26 µM in test [10]. The TGI in [1] was 39.9 µM; in test [2], more than 100 µM; in test [3], more than 100 µM; in [4], 31.6 µM; in test [5], 91.9 µM; in test [6] it was 66.3 µM. Also, the TGI is 61.6 µM in [7], 19.5 µM in test [8], more than 100 µM in [9] and more than 100 µM in test [10].

As to `Clc1ccccc1-c1nc2ccccc2[nH]1`, the GI50 was more than 100 µM in test [1]; more than 100 µM in test [2]; 91.7 µM in [3]; more than 100 µM in test [4]; more than 100 µM in test [5]; more than 100 µM in test [6]. Moreover, the GI50 in test [7] is 94 µM; in test [8], more than 100 µM; in test [9], more than 100 µM; in [10], more than 100 µM. In addition, the TGI in [1], in [2], in test [3], in [4], in [5] and in test [6] was more than 100 µM throughout. Further, the TGI in [7], in [8], in test [9] and in test [10] was more than 100 µM throughout.

Turning to `O=C(CCCn1ccnc1[N+](=O)[O-])NCCn1cnc([N+](=O)[O-])c1`, the TGI in [1], in test [2], in test [3], in test [4], in [5] and in test [6] was more than 100 µM in each case. Moreover, the TGI in test [7], in [8], in test [9] and in test [10] was more than 100 µM throughout.

As to `COc1cc(C(=O)/C=C/c2c(-c3ccc(F)cc3)nc3sccn23)cc(OC)c1OC`, the GI50 in [1] was 2.54 µM; in test [2], 2.99 µM; in [3], 3.49 µM; in [4], 2.33 µM; in test [5] it was 2.16 µM; in test [6], 2.05 µM. The GI50 in [7] is 2.59 µM; in test [8], 5.59 µM; in [9] it was 2 µM; in test [10], 2.3 µM. The TGI in test [1] came to 6.49 µM; in test [2], 13.2 µM; in test [4], 9.44 µM; in test [5], 6.35 µM; in test [6], 6.28 µM; in test [7], 44.6 µM. In addition, the TGI in [8] is more than 27.9 µM; in test [9], 15.8 µM; in [10], 14.3 µM.

Consider `Cc1ccc(C(=O)Nc2ccc(CN3CCN(C)CC3)c(C(F)(F)F)c2)cc1C#Cc1cncc2ncccc12`, for which the GI50 is 0.48 µM in test [1]; 0.162 µM in [2]; 0.0879 µM in test [3]; 0.0877 µM in [4]; 0.353 µM in test [5]; 0.502 µM in test [6]. Also, the GI50 is 0.584 µM in test [7], 0.191 µM in [8], 0.24 µM in test [9] and 1.58 µM in test [10]. Moreover, the TGI in test [1] is 1.94 µM; in [2], 0.999 µM; in test [3], 0.755 µM; in [4] it was 0.9 µM; in test [5], 16.8 µM; in [6], 16 µM. Also, the TGI in test [7] worked out at 7.68 µM; in [8], 0.599 µM; in [9], 11.1 µM; in test [10] it was 21.1 µM.

For the compound `CC(C)(C)c1ccc(C(=O)N/N=C/c2ccc(O)cc2O)cc1`, the GI50 in [1] was 0.53 µM; in test [2] it was 0.334 µM; in test [3], 0.411 µM; in [4], 0.409 µM; in test [5], 0.346 µM; in test [6] it was 0.351 µM. Further, the GI50 was 0.784 µM in [7], 1.89 µM in [8], 0.801 µM in test [9] and 0.786 µM in test [10]. The TGI in [1] is 3.3 µM; in test [2] it was 7.74 µM; in test [3], 12.4 µM; in [4] it was 9.83 µM; in [5] it was 14.9 µM; in [6] it was 19.3 µM. Besides, the TGI in [7] is 20.9 µM; in test [8], 16 µM; in test [9], 13 µM; in [10], 32.6 µM.

As to `Cn1cc(-c2csc(-c3cn(CCN4CCOCC4)c4ccc(F)cc34)n2)c2cccnc21`, the GI50 in [1] is 2.91 µM; in test [2], 2.82 µM; in test [3], 2.91 µM; in test [4], 2.09 µM; in test [5], 1.79 µM; in test [6], 2.36 µM. The GI50 was 1.68 µM in test [7], 2.53 µM in [8], 3.15 µM in [9] and 1.52 µM in test [10]. Further, the TGI was determined as 11.4 µM in [1]; 12.9 µM in test [2]; 14.1 µM in test [3]; 4.89 µM in [4]; 4.46 µM in [5]; 8.15 µM in [6]. In addition, the TGI is 4.96 µM in test [7], 7.28 µM in test [8], more than 100 µM in test [9] and 4.73 µM in [10].

Turning to `CC(=O)NNC(=O)c1nn(-c2ccc(Cl)cc2)cc1OC(C)=O`, the GI50 was 14.4 µM in test [1]; 15.3 µM in test [2]; 21.5 µM in [3]; 14.2 µM in test [4]; more than 21 µM in test [5]; 17 µM in test [6]. Besides, the GI50 in [7] was 12.1 µM; in test [8], more than 64.7 µM; in test [9], 20.8 µM; in test [10], 13.7 µM. Also, the TGI was more than 100 µM in [1]; more than 66.6 µM in test [2]; more than 100 µM in [3]; 49.7 µM in [4]; more than 100 µM in test [5]; 69.7 µM in test [6]. The TGI is 64.3 µM in test [7], more than 100 µM in test [8], more than 100 µM in test [9] and 94.6 µM in test [10].

Consider `COc1ccc(/C=C/c2nc(N3CCOCC3)c3cc(F)c(F)cc3n2)cc1OC`, for which the GI50 in test [1] was 4.44 µM; in [2], 4.35 µM; in [3] it was 47.4 µM; in [4], 2.75 µM; in test [5], 4.11 µM; in test [6], 4.09 µM. Also, the GI50 in [7] is 2.7 µM; in [8], 9.48 µM; in test [9], 5.36 µM; in test [10], 1.49 µM. Besides, the TGI in [1] was more than 100 µM; in test [2] it was more than 100 µM; in test [3], more than 100 µM; in test [4], 26.8 µM; in [5], more than 100 µM; in test [6] it was more than 100 µM. The TGI in test [7] was more than 100 µM; in test [8], more than 100 µM; in test [9], more than 100 µM; in test [10] it was 9.72 µM.
